The results in this text go back to patent US9879008B2, “2,3,4,6-tetra-substituted benzene-1,5-diamine derivatives, preparation method therefor and medicinal use thereof” (SHANGHAI HAIYAN PHARMACEUTICAL TECHNOLOGY CO., LTD., priority 2014, dated 2018).

Assay [1] has as its system H1975 cell. Put plainly: MTT cytostatic activity, H1975 cell.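 On all read-outs here: cells in 96-well plates exposed to compound for 72 h, then given MTT for a further 4 h at 37 °C under 5% CO2.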 The class given is cell-based. The settings on record: MTT; for IC50: Homo sapiens, NCI-H1975, 72 h, read-out: H1975 cell (IC50/nM); for Selective inhibitory activity against cells [IC50(A431 cell)/IC50(H1975 cell)]: ratio of cell IC50 values.
Assay [2] has as its target T1, wild-type EGFR kinase (Homo sapiens, UniProt P00533).
T1 construct: purchased Invitrogen PV3872
As to the kind of experiment: z-lyte inhibition test against wild-type EGFR kinase.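 Further: reaction volume 10 µL holding 0.8 ng/µL enzyme and 2 µM Tyr04 substrate, with DMSO at 2% once compounds are present.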 The class given is biochemical. The settings on record: 10 μM ATP, read-out: EGFR WT (IC50/nM).

The test system of assay [3] is NIH3T3 cell. As to the kind of experiment: MTT cytotoxicity against NIH3T3 cells. The class given is cell-based. The settings on record: Mus musculus, NIH3T3; cytotoxicity, MTT, 72 h; read-out: MTT assay against NIH3T3 cell (IC50/nM).
The subject of assay [4] is A431 cell. Put plainly: MTT cytostatic activity, A431 cell. The class given is cell-based. The settings on record: Homo sapiens, A-431; MTT, 72 h; read-out: A431 cell (IC50/nM).
Assay [5] concerns A431 cells. Put plainly: ELISA assay for cell activity, EGF-treated A431 cells.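 Further: Serum-starved A431 cells, ELISA on lysates read as OD450 minus OD570, inhibition scaled between EGF-stimulated wells (0%) and unstimulated cell control (100%), DMSO 0.5% final.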 It counts as cell-based. The settings on record: Homo sapiens, A-431, compound 1 h, then EGF 45 min. Background: In an ELISA, binding on a coated surface is turned into a signal by an enzyme label.
Assay [6] deals with H1975 cells. As to the kind of experiment: ELISA assay for cell activity of EGFR T790M inhibitor, H1975 cells. The settings on record: for Selective inhibitory activities against cell [IC50(A431 cell)/IC50(H1975 cell)]: ELISA, ratio of cell IC50 values; for IC50: Homo sapiens, NCI-H1975, 1 h, read-out: H1975 cell (IC50/nM).

T1 sequence (P00533 25-1210): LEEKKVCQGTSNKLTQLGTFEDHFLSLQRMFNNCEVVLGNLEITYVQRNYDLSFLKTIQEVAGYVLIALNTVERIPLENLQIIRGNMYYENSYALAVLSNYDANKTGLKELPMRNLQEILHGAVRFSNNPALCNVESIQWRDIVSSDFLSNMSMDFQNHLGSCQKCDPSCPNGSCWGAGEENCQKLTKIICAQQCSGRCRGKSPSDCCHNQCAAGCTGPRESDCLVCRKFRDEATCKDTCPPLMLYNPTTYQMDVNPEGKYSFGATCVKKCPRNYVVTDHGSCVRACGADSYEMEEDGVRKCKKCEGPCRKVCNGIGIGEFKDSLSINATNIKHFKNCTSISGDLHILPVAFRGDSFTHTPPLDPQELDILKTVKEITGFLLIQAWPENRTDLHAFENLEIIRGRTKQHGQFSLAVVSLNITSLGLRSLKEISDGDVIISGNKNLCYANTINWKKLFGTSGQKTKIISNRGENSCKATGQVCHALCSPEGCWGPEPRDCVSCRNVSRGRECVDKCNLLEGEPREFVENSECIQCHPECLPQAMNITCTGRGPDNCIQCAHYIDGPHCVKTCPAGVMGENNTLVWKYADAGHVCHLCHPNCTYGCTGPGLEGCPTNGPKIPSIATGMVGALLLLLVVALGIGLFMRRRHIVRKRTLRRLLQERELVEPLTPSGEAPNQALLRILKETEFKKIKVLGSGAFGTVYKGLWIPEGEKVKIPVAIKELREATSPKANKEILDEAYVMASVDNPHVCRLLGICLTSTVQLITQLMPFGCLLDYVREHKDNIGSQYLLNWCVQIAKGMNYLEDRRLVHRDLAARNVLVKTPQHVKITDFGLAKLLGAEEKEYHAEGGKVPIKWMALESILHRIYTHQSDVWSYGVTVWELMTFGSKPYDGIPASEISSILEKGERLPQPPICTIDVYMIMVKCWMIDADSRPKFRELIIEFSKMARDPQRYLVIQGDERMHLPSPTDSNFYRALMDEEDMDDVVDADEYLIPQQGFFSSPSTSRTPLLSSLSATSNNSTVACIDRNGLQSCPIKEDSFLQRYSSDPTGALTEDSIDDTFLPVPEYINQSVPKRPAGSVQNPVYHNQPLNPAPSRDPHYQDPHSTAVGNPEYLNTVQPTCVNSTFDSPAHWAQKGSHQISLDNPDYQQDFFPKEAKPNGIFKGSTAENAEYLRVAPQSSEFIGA

`C=CC(=O)Nc1cc(Nc2ncc(Cl)c(OC3CCN(S(C)(=O)=O)CC3)n2)c(OC)cc1N1CCC(N(C)C)CC1` [Compound J-39]: the IC50 is 72 nM in assay [1]; 39 nM in assay [2]; more than 10000 nM in assay [3]; 4300 nM in assay [4]; 1320 nM in assay [5]; 123 nM in assay [6]. Moreover, in assay [1], the “Selective inhibitory activity against cells [IC50(A431 cell)/IC50(H1975 cell)]” value (“Selective inhibitory activity” below) was 60. Also, the “Selective inhibitory activities against cell [IC50(A431 cell)/IC50(H1975 cell)]” value (“Selective inhibitory activities” for short) in assay [6] stood at 11.

In the case of `C=CC(=O)Nc1cc(Nc2nccc(OC3CN(c4cnc5c(ccn5C)c4)C3)n2)c(OC)cc1N1CCC(N(C)C)CC1` [Compound J-18], the IC50 was 184 nM in assay [1]; 30 nM in assay [2]; 2960 nM in assay [4]; 1100 nM in assay [5]; 256 nM in assay [6]. Further, the “Selective inhibitory activity” value in assay [1] worked out at 16.1. Moreover, in assay [6], the “Selective inhibitory activities” value is 4.3.

For `C=CC(=O)Nc1cc(Nc2ncc(F)c(OC3CN(C(C)=O)C3)n2)c(OC)cc1N1CCC(N(C)C)CC1` [Compound J-30], the IC50 in assay [1] is 121 nM; in assay [2] it was 95 nM; in assay [3], more than 10000 nM; in assay [4], 6010 nM; in assay [5] it was 1910 nM; in assay [6], 113 nM. For the same compound, the “Selective inhibitory activity” value in assay [1] is given as 50. Moreover, the “Selective inhibitory activities” value in assay [6] worked out at 17.

As for `C=CC(=O)Nc1cc(Nc2ncc(F)c(SC3CN(S(C)(=O)=O)C3)n2)c(OC)cc1N1CCC(N(C)C)CC1` [Compound J-57], the IC50 in assay [1] was 7 nM; in assay [2], 4 nM; in assay [3], more than 10000 nM; in assay [4] it was 534 nM; in assay [5], 49 nM; in assay [6], 11 nM. Also, the “Selective inhibitory activity” value in assay [1] came to 76.3. The “Selective inhibitory activities” value in assay [6] was 4.5.

In the case of `C=CC(=O)Nc1cc(Nc2nccc(OC3CN(S(C)(=O)=O)C3)n2)c(OC)cc1N1CCC(N(C)C)CC1` [Compound J-10, N-(2-(4-(dimethylamino)piperidine-1-yl)-4-methoxy-5-(4-(1-(methylsulfonyl)azetidine-3-oxy)pyrimidine-2-amino)phenyl)acrylamide], the IC50 in assay [1] was 31 nM; in assay [3], more than 10000 nM; in assay [4] it was 596 nM. Also, in assay [1], the “Selective inhibitory activity” value was determined as 19.2.

In the case of `C=CC(=O)Nc1cc(Nc2ncc(C(F)(F)F)c(SC3CN(S(C)(=O)=O)C3)n2)c(OC)cc1N1CCC(N(C)C)CC1` [Compound J-59], the IC50 in assay [1] was less than 5 nM; in assay [2], 23 nM; in assay [3], 9630 nM; in assay [4], 1950 nM; in assay [5], 757 nM; in assay [6] it was 6 nM. Besides, in assay [1], the “Selective inhibitory activity” value is reported as more than 390. In assay [6], the “Selective inhibitory activities” value is 126.

As for `C=CC(=O)Nc1cc(Nc2ncc(Cl)c(O[C@H]3CCN(C(C)=O)C3)n2)c(OC)cc1N1CCC(N(C)C)CC1` [Compound J-48], the IC50 in assay [1] is 56 nM; in assay [2] it was 610 nM; in assay [3] it was more than 10000 nM; in assay [4] it was 4620 nM; in assay [5], 3790 nM; in assay [6], 102 nM. The “Selective inhibitory activity” value in assay [1] is 82.4. Moreover, the “Selective inhibitory activities” value in assay [6] is on record as 37.1.

Take `C=CC(=O)Nc1cc(Nc2ncc(Cl)c(O[C@@H]3CCN(S(C)(=O)=O)C3)n2)c(OC)cc1N1CCC(N(C)C)CC1` [Compound J-45, (R)—N-(5-(5-chloro-4-(1-(methylsulfonyl)pyrrolidine-3-oxy)pyrimidine-2-amino)-2-(4-(dimethylamino)piperidine-1-yl)-4-methoxyphenyl)acrylamide]: the IC50 was determined as 19 nM in assay [1]; 41 nM in assay [2]; 8200 nM in assay [3]; 2740 nM in assay [4]; 784 nM in assay [5]; 18 nM in assay [6]. In assay [1], the “Selective inhibitory activity” value amounted to 144.1. For the same compound, the “Selective inhibitory activities” value in assay [6] is 44.

For `C=CC(=O)Nc1cc(Nc2nccc(C3CN(c4cnc5c(cnn5C)c4)C3)n2)c(OC)cc1N(C)CCN(C)C` [compound 2, reference compound], the IC50 in assay [1] is 359 nM; in assay [4], 5060 nM; in assay [5], 1760 nM; in assay [6], 1340 nM. In assay [1], the “Selective inhibitory activity” value worked out at 14.1. Also, in assay [6], the “Selective inhibitory activities” value is given as 1.3.

Turning to `C=CC(=O)Nc1cc(Nc2ncc(F)c(SC3CN(C(C)=O)C3)n2)c(OC)cc1N1CCC(N(C)C)CC1` [Compound J-58], the IC50 in assay [1] is 23 nM; in assay [2] it was 69 nM; in assay [3], more than 10000 nM; in assay [4], 2260 nM; in assay [5], 991 nM; in assay [6] it was 24 nM. In addition, in assay [1], the “Selective inhibitory activity” value amounted to 98.3. Also, the “Selective inhibitory activities” value in assay [6] was determined as 41.3.

In the case of `C=CC(=O)Nc1cc(Nc2ncc(Cl)c(OC3CCCN(C(C)=O)CC3)n2)c(OC)cc1N1CCC(N(C)C)CC1` (stereo not shown) [Compound J-35], the IC50 in assay [1] was 35 nM; in assay [2], 80 nM; in assay [3], more than 10000 nM; in assay [4], 2900 nM; in assay [5] it was 2970 nM; in assay [6] it was 52 nM. Moreover, the “Selective inhibitory activity” value in assay [1] came out at 82.8. Besides, the “Selective inhibitory activities” value in assay [6] is listed as 57.2.

Take `C=CC(=O)Nc1cc(Nc2ncc(Cl)c(OC3CCN(C(C)=O)CC3)n2)c(OC)cc1N1CCC(N(C)C)CC1` [Compound J-38]: the IC50 in assay [1] was 66 nM; in assay [2], 170 nM; in assay [3] it was more than 10000 nM; in assay [4], 4670 nM; in assay [5], 4490 nM; in assay [6] it was 75 nM. Moreover, in assay [1], the “Selective inhibitory activity” value was found to be 71. Further, the “Selective inhibitory activities” value in assay [6] is 60.

As for `C=CC(=O)Nc1cc(Nc2nccc(OC3CCCN(S(C)(=O)=O)CC3)n2)c(OC)cc1N(C)CCN(C)C` (stereo not shown) [Compound J-36], the IC50 in assay [1] is 69 nM; in assay [2], 17 nM; in assay [3] it was more than 10000 nM; in assay [4], 3260 nM. Also, the “Selective inhibitory activity” value in assay [1] came out at 47.3.

As to `C=CC(=O)Nc1cc(Nc2ncc(Cl)c(OC3CN(C(C)=O)C3)n2)c(OC)cc1N1CCC(N(C)C)CC1` [Compound J-27], the IC50 in assay [1] stood at 57 nM; in assay [2], 114 nM; in assay [3] it was 9830 nM; in assay [4], 3050 nM; in assay [5], 2550 nM; in assay [6] it was 30 nM. Also, in assay [1], the “Selective inhibitory activity” value is listed as 53.6. In addition, the “Selective inhibitory activities” value in assay [6] is 85.

`C=CC(=O)Nc1cc(Nc2ncc(Cl)c(OC3CN(CCF)C3)n2)c(OC)cc1N1CCC(N(C)C)CC1` [Compound J-54]: the IC50 in assay [1] was 92 nM; in assay [2], 376 nM; in assay [3], more than 10000 nM; in assay [4], 6080 nM. In addition, the “Selective inhibitory activity” value in assay [1] came to 66.1.

Regarding `C=CC(=O)Nc1cc(Nc2ncc(Cl)c(OC3CN(C(C)=O)C3)n2)c(OC)cc1N(C)CCN(C)C` [Compound J-28], the IC50 was 11 nM in assay [1]; 49 nM in assay [2]; more than 10000 nM in assay [3]; 3150 nM in assay [4]; 649 nM in assay [5]; 20 nM in assay [6]. The “Selective inhibitory activity” value in assay [1] is reported as 286.3. Besides, in assay [6], the “Selective inhibitory activities” value is 32.5.

As to `C=CC(=O)Nc1cc(Nc2nccc(OC3CN(S(=O)(=O)c4ccccc4)C3)n2)c(OC)cc1N(C)CCN(C)C` [Compound J-7, N-(2-((2-(dimethylamino)ethyl)(methyl)amino)-4-methoxy-5-(4-(1-(phenylsulfonyl)azetidine-3-oxy)pyrimidine-2-amino)phenyl)acrylamide], the IC50 was 66 nM in assay [1]; more than 10000 nM in assay [3]; 989 nM in assay [4]; 234 nM in assay [5]; 70 nM in assay [6]. Further, in assay [1], the “Selective inhibitory activity” value turned out to be 15. In assay [6], the “Selective inhibitory activities” value is reported as 3.3.

For the compound `C=CC(=O)Nc1cc(Nc2nccc(OC3CN(C(C)=O)C3)n2)c(OC)cc1N1CCC(N(C)C)CC1` [Compound J-20], the IC50 in assay [1] was 138 nM; in assay [2], 69 nM; in assay [3], more than 10000 nM; in assay [4], 5350 nM. For the same compound, the “Selective inhibitory activity” value in assay [1] came to 38.8.
